Data on five compounds can be found in US4459417A, “Process for preparing spectinomycin analogs: N-demethylation of spectinomycin or its analogs and realkylation of the intermediates” (The Upjohn Company, priority 1983, dated 1984).

In brackets after ≈: the same amount, converted by molar mass. Structures can show the parent of a compound that is named as a salt.

What all share (experiment): Minimum inhibitory concentration in vitro
Holding throughout (assay type): cell-based

One test has as its system K. pneumoniae UC 58. Particulars: for MIC: Klebsiella pneumoniae, UC58.
The subject of another test is S. aureus UC 76. Particulars: for MIC: Staphylococcus aureus, UC76.
The next test relates to P. vulgaris UC 93. To be noted: for MIC: Proteus vulgaris, UC93.
The subject of another test is P. mirabilis UC 6671. Particulars: for MIC: Proteus mirabilis, UC6671.
The subject of the next test is S. typhi UC 215. Particulars: for MIC: Salmonella enterica, read-out: Minimum Inhibitory Concentration; for Minimum Inhibitory Concentration: in vitro, S. typhi UC 215.
For another test, the system named is S. schottmuelleri UC 126.
The test system of another test is S. faecalis UC 694. To be noted: for MIC: Enterococcus faecalis, UC694.
A further test deals with E. coli UC 45. To be noted: for MIC: Escherichia coli, UC45.
The subject of a further test is Ps. aeruginosa UC 95. To be noted: for MIC: Pseudomonas aeruginosa, UC95.
A further test deals with P. stuartii UC 6570. To be noted: for MIC: Providencia stuartii, UC6570.
A further test deals with S. flexneri UC 143. To be noted: Shigella flexneri, UC143.
A further test relates to S. marcescens UC 131. To be noted: for MIC: Serratia marcescens, UC131.

With `CCN[C@@H]1[C@H](O)[C@H](NCC)[C@H]2O[C@@]3(O)C(=O)C[C@@H](C)O[C@H]3O[C@@H]2[C@H]1O` [IIIa, N,N'-didemethyl-N,N'-diethylspectinomycin dihydrochloride], the MIC in the test on K. pneumoniae UC 58 is 31.2 µg/mL; in the test on S. aureus UC 76, 500 µg/mL; with P. vulgaris UC 93 it was 125 µg/mL; with P. mirabilis UC 6671, 62.5 µg/mL; with S. typhi UC 215, 1000 µg/mL; in the test on S. schottmuelleri UC 126 it was greater than 1000 µg/mL. The MIC against S. faecalis UC 694 was greater than 1000 µg/mL; in the test with E. coli UC 45, 1000 µg/mL; in the test on Ps. aeruginosa UC 95, 1000 µg/mL; against P. stuartii UC 6570, greater than 1000 µg/mL; in the test with S. flexneri UC 143, 31.2 µg/mL; against S. marcescens UC 131 it was 62.5 µg/mL.

Regarding `C[C@@H]1CC(=O)[C@]2(O)O[C@@H]3[C@@H](N)[C@@H](O)[C@@H](N)[C@H](O)[C@H]3O[C@@H]2O1` [IIa, N,N'-didemethylspectinomycin dihydrochloride], the MIC in the test with K. pneumoniae UC 58 is 125 µg/mL; with S. aureus UC 76 it was 250 µg/mL; against P. vulgaris UC 93 it was 125 µg/mL; in the test on P. mirabilis UC 6671, 1000 µg/mL; in the test with S. typhi UC 215 it was greater than 1000 µg/mL; with S. faecalis UC 694 it was greater than 1000 µg/mL. For the same compound, the MIC against E. coli UC 45 is greater than 1000 µg/mL; with Ps. aeruginosa UC 95, 250 µg/mL; in the test with S. flexneri UC 143, 250 µg/mL; against S. marcescens UC 131, 31.2 µg/mL.

`CN[C@@H]1[C@H](O)[C@H](NC)[C@H]2O[C@@]3(O)C(=O)C[C@@H](C)O[C@H]3O[C@@H]2[C@H]1O` [Ia, spectinomycin]: the MIC in the test on K. pneumoniae UC 58 was 2 to 3.9 µg/mL (≈ 6.02 to 11.7 µM); against S. aureus UC 76, 7.8 µg/mL (≈ 23.5 µM); in the test with P. vulgaris UC 93 it was 7.8 to 15.6 µg/mL (≈ 23.5 to 46.9 µM); against P. mirabilis UC 6671, 3.9 to 7.8 µg/mL (≈ 11.7 to 23.5 µM); with S. typhi UC 215 it was 3.9 to 7.8 µg/mL (≈ 11.7 to 23.5 µM); in the test with S. schottmuelleri UC 126, 7.8 µg/mL (≈ 23.5 µM). Besides, the MIC in the test on S. faecalis UC 694 is 31.2 to 62.5 µg/mL (≈ 93.9 to 188 µM); in the test on E. coli UC 45, 3.9 to 7.8 µg/mL (≈ 11.7 to 23.5 µM); in the test on Ps. aeruginosa UC 95, 31.2 µg/mL (≈ 93.9 µM); against P. stuartii UC 6570 it was 1000 µg/mL (≈ 3010 µM); in the test with S. flexneri UC 143, 3.9 to 7.8 µg/mL (≈ 11.7 to 23.5 µM); against S. marcescens UC 131, 3.9 to 7.8 µg/mL (≈ 11.7 to 23.5 µM).

With “Mono-N-demethylspectinomycin dihydrochlorides [IIb]”, the “Minimum Inhibitory Concentration” value is listed as 15.6 Micrograms/Milliliter in the test with K. pneumoniae UC 58; 15.6 Micrograms/Milliliter in the test on S. aureus UC 76; 15.6 Micrograms/Milliliter with P. vulgaris UC 93; 15.6 Micrograms/Milliliter in the test with P. mirabilis UC 6671; 62.5 Micrograms/Milliliter in the test with S. typhi UC 215; 125 Micrograms/Milliliter in the test on S. faecalis UC 694. Moreover, in the test on S. marcescens UC 131, the “Minimum Inhibitory Concentration” value stood at 3.9 Micrograms/Milliliter.

For the compound “mono-N-demethyl-mono-N-ethylspectinomycin dihydrochloride [IIIb]”, the “Minimum Inhibitory Concentration” value is 3.9 Micrograms/Milliliter with K. pneumoniae UC 58; 31.2 Micrograms/Milliliter in the test with S. aureus UC 76; 7.8 Micrograms/Milliliter with P. vulgaris UC 93; 15.6 Micrograms/Milliliter with P. mirabilis UC 6671; 125 Micrograms/Milliliter in the test with S. typhi UC 215; 500 Micrograms/Milliliter with S. faecalis UC 694. Also, the “Minimum Inhibitory Concentration” value is listed as 62.5 Micrograms/Milliliter in the test on E. coli UC 45, 31.2 Micrograms/Milliliter with Ps. aeruginosa UC 95, greater than 500 Micrograms/Milliliter in the test on P. stuartii UC 6570 and 7.8 Micrograms/Milliliter in the test on S. marcescens UC 131.
